Laboratory results taken from patent US7902361B2, “Pyrimidin-4-yl-3, 4-thione compounds and their use in therapy” (Cyclacel Limited, priority 2003, dated 2011).
pIC50, pKi: −log10 of the molar value.

Tests used:
Format in all cases: biochemical
CDK2/cyclin E = CDK2/cyclin E (Homo sapiens, UniProt P24941); assay: Kinase assay CDK2/cyclin E; details: Ki calculated (Cheng-Prusoff) from experimentally determined IC50 and Km,ATP; read-out: Kinase Inhibition Ki CDK2 - cyclin E
Experimental: (§1) The compounds from the examples above were investigated for their ability to inhibit the enzymatic activity of various protein kinases. This was achieved by measurement of incorporation of radioactive phosphate from ATP into appropriate polypeptide substrates. Recombinant protein kinases and kinase complexes were produced or obtained commercially. Assays were performed using 96-well plates and appropriate assay buffers (typically 25 mM β-glycerophosphate, 20 mM MOPS, 5 mM EGTA, 1 mM DTT, 1 mM […], pH 7.4), into which were added 2-4 μg of active enzyme with appropriate substrates. […] Reactions were stopped on ice, followed by filtration through p81 filterplates or GF/C filterplates (Whatman Polyfiltronics, Kent, UK). After washing 3 times with 75 mM aq orthophosphoric acid, plates were dried, scintillant added and incorporated radioactivity measured in a scintillation counter (TopCount, Packard Instruments, Pangbourne, Berks, UK). Compounds for kinase assay were made up as 10 mM stocks in DMSO and diluted into 10% DMSO in assay buffer.

CDK2/cyclin A = CDK2/cyclin A (Homo sapiens, UniProt P24941); assay: Kinase assay CDK2/cyclin A; details: Ki calculated (Cheng-Prusoff) from experimentally determined IC50 and Km,ATP; read-out: Kinase Inhibition Ki CDK2 - cyclin A
Experimental: as §1

CDK7/cyclin H = CDK7/cyclin H (Homo sapiens, UniProt P50613); assay: Kinase assay CDK7/cyclin H; details: Ki calculated (Cheng-Prusoff) from experimentally determined IC50 and Km,ATP; read-out: Kinase Inhibition Ki CDK7 - cyclin H
Experimental: (§2) The compounds from the examples above were investigated for their ability to inhibit the enzymatic activity of various protein kinases. This was achieved by measurement of incorporation of radioactive phosphate from ATP into appropriate polypeptide substrates. Recombinant protein kinases and kinase complexes were produced or obtained commercially. Assays were performed using 96-well plates and appropriate assay buffers (typically 25 mM β-glycerophosphate, 20 mM MOPS, 5 mM EGTA, 1 mM DTT, 1 mM […], pH 7.4), into which were added 2-4 μg of active enzyme with appropriate substrates. The reactions were initiated by addition of Mg/ATP mix (15 mM MgCl2+100 μM ATP with 30-50 kBq per well of [γ-^32P]-ATP) and mixtures incubated as required at 30° C. Reactions were stopped on ice, followed by filtration through p81 filterplates or GF/C filterplates (Whatman Polyfiltronics, Kent, UK). After washing 3 times with 75 mM aq orthophosphoric acid, plates were dried, scintillant added and incorporated radioactivity measured in a scintillation counter (TopCount, Packard Instruments, Pangbourne, Berks, UK). Compounds for kinase assay were made up as 10 mM stocks in DMSO and diluted into 10% DMSO in assay buffer.

CDK9/cyclin T1 = CDK9/cyclin T1 (Homo sapiens, UniProt P50750); assay: Kinase assay CDK9/cyclin T1; details: Ki calculated (Cheng-Prusoff) from experimentally determined IC50 and Km,ATP; read-out: Kinase Inhibition Ki CDK9 - cyclin T1
Experimental: as §2

aurora A = target: T1, aurora A (Homo sapiens, UniProt O14965); assay: Kinase assay aurora A; details: Ki calculated (Cheng-Prusoff) from experimentally determined IC50 and Km,ATP; read-out: Kinase Inhibition Ki Aurora A
T1 sequence (O14965 1-403): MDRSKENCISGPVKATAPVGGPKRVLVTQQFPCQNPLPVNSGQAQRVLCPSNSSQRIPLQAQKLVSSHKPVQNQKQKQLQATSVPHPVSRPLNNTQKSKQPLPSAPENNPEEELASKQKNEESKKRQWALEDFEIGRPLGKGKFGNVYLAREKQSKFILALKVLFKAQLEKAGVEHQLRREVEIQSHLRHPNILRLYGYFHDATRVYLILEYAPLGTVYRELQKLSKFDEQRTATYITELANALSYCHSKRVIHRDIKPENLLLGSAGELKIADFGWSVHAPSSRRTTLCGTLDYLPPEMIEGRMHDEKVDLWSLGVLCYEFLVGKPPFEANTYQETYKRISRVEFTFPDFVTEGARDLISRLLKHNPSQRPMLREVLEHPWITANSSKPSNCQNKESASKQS
Experimental: as §1

GSK3β = target: T2, GSK3β (Homo sapiens, UniProt P49841); assay: GSK3β in vitro kinase assay; details: recombinant human GSK3β, 100 μM ATP
T2 construct: purchased New England Biolabs
Experimental: Both isoforms of GSK3 (α and β) are involved in the regulation of glycogen synthase activity—key enzyme in the glycogen metabolism.
A 10-point titration was set up to determine the IC50 values of selected example compounds against GSK3β. Assays were performed using 96-well microtiter plates with a final volume of 25 μL per well. Each assay contained 1.5 units of GSK3β(New England Biolabs), 200 μM CREB phosphopeptide ([…]pSYR, Alta Biosciences), 20 mM Tris HCl pH7.5, 5 mM DTT, 15 mM MgCl2 supplemented with 100 μM ATP and 0.5 μCi of [γ-^32P] ATP plus or minus inhibitor in 2% DMSO. Assays were carried out for 30 minutes at 30° C. before stopping the reaction by the addition of an equal volume of 75 mM aqueous phosphoric acid. Samples were then spotted onto a p81 filterplate (Whatman) and a vacuum was applied. Wells were washed 3 times with 200 μL of dilute aqueous phosphoric acid before the addition of 50 μL Microscint 40 per well. Incorporation of radioactivity was determined on a Topcount microplate scintillation counter (Packard).

CDK1/cyclin B = CDK1/cyclin B (Homo sapiens, UniProt P06493); assay: Kinase assay CDK1/cyclin B (radioactive phosphate incorporation); details: Ki calculated (Cheng-Prusoff) from experimentally determined IC50 and Km,ATP; read-out: Kinase Inhibition Ki CDK1 - cyclin B
Experimental: as §1

CDK4/cyclin D1 = CDK4/cyclin D1 (Homo sapiens, UniProt P11802); assay: Kinase assay CDK4/cyclin D1; details: Ki calculated (Cheng-Prusoff) from experimentally determined IC50 and Km,ATP; read-out: Kinase Inhibition Ki CDK4 - cyclin D1
Experimental: as §2

Chain of CDK9/cyclin T1 (P50750 whole entry, species assumed): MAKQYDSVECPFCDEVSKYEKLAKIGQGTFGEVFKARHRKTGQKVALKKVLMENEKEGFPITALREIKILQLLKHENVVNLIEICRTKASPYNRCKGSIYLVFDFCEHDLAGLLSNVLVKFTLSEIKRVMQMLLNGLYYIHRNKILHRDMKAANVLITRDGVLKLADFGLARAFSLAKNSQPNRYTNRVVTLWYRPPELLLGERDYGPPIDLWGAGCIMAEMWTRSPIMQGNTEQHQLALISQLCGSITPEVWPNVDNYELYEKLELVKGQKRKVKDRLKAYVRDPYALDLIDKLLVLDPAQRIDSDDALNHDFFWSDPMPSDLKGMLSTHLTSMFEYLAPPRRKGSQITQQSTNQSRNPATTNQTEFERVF
Chain of CDK9/cyclin T1 (O60563 whole entry partner, species assumed): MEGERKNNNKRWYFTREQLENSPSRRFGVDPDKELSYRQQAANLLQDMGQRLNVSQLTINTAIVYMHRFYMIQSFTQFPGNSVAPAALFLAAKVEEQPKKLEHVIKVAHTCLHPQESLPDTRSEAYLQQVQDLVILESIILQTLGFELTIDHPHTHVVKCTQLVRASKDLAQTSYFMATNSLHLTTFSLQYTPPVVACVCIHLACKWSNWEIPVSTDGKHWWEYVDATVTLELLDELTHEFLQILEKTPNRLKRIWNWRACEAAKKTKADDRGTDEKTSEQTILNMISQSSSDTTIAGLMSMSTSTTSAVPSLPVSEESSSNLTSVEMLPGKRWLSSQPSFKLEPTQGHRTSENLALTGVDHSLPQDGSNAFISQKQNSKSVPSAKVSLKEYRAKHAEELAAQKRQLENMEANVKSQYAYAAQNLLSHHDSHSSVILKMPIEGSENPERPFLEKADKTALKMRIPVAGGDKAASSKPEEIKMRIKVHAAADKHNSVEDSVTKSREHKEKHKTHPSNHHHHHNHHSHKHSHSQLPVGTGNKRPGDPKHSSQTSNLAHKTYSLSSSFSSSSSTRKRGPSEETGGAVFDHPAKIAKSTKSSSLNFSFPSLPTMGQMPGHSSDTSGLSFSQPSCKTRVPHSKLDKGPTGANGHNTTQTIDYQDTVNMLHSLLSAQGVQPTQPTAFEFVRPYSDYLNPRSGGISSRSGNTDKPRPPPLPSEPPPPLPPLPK
Chain of CDK4/cyclin D1 (P11802 whole entry, species assumed): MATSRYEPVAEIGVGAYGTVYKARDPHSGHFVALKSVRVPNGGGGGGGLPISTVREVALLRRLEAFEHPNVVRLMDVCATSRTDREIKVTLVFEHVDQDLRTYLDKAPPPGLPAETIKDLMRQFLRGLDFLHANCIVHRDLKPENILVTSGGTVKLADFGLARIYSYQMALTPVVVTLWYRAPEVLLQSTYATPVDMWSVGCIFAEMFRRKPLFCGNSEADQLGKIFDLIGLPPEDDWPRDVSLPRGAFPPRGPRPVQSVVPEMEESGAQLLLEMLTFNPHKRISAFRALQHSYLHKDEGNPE
Chain of CDK4/cyclin D1 (P24385 whole entry partner, species assumed): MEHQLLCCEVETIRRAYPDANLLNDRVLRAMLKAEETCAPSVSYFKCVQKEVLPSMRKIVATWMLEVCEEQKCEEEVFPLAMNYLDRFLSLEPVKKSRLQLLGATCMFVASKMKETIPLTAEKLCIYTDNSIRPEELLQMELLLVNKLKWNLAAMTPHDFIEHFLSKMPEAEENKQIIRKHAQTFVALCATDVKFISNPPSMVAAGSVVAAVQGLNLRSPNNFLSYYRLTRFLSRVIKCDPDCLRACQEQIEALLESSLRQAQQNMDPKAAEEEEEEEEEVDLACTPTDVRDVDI
Chain of CDK7/cyclin H (P50613 whole entry, species assumed): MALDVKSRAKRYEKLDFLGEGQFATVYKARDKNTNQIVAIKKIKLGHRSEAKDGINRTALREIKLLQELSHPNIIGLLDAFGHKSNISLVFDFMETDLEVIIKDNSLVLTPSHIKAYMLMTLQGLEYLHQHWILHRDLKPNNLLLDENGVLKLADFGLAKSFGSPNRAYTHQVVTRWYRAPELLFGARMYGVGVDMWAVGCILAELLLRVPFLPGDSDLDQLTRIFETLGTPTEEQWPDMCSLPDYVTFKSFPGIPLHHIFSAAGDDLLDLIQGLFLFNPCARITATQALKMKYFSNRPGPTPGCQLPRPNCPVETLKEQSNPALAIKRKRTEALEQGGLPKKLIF
Chain of CDK7/cyclin H (P51946 whole entry partner, species assumed): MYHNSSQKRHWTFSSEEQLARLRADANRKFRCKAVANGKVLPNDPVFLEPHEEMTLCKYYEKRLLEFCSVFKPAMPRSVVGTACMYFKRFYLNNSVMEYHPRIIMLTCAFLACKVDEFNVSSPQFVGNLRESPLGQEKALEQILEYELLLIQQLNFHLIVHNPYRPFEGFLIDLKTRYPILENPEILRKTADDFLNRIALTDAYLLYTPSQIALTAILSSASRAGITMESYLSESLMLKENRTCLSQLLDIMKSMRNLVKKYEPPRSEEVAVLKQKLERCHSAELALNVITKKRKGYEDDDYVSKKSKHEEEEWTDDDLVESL
Chain of CDK1/cyclin B (P06493 whole entry, species assumed): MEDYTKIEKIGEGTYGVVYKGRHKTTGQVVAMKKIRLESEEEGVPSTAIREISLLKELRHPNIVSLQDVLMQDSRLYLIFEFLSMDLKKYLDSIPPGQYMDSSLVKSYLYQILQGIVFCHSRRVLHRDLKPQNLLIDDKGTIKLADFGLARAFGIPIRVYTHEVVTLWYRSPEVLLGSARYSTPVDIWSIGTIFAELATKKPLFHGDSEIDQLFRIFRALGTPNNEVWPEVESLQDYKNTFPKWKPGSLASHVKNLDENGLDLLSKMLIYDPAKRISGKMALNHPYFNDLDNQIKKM
Chain of CDK1/cyclin B (P14635 whole entry partner, species assumed): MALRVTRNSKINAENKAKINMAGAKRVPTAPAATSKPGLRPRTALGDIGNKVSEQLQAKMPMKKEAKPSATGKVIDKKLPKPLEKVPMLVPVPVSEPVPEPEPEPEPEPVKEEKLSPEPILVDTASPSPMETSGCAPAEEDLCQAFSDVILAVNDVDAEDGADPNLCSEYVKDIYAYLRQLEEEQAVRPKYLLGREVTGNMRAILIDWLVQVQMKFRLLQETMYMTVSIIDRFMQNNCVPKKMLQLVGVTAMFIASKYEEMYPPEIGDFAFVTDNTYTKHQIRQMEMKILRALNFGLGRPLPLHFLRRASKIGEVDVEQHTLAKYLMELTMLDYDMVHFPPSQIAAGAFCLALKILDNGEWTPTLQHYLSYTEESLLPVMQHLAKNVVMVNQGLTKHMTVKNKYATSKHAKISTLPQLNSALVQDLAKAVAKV
T2 sequence (P49841 whole entry): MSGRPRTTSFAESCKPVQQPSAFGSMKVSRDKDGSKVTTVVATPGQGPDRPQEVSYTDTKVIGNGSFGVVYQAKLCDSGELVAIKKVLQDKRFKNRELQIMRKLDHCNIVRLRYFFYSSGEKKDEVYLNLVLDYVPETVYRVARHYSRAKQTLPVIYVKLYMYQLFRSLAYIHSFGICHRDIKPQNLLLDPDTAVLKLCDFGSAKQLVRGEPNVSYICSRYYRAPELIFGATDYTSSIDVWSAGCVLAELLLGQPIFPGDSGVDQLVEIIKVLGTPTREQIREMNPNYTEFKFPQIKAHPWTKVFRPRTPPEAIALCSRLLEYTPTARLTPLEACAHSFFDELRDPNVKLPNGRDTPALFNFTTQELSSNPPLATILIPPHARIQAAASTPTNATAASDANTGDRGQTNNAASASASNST

pKi (CDK2/cyclin E)	pKi (CDK2/cyclin A)	pKi (CDK7/cyclin H)	pKi (CDK9/cyclin T1)	pKi (aurora A)	pIC50 (GSK3β)	pKi (CDK1/cyclin B)	pKi (CDK4/cyclin D1)	SMILES
				7.20	7.55			Cc1c(-c2ccnc(Nc3ccc(CNC(=O)c4ccccn4)cc3)n2)sc(=O)n1C [Compound 82, Pyridine-2-carboxylic acid 4-[4-(3,4-dimethyl-2-oxo-2,3-dihydro-thiazol-5-yl)-pyrimidin-2-ylamino]-benzylamide]
7.10	6.19		6.42		7.18	5.96		Cc1c(-c2ccnc(Nc3ccc(S(=O)(=O)NCc4ccccc4)cc3)n2)sc(=O)n1C [Compound 73, N-Benzyl-4-[4-(3,4-dimethyl-2-oxo-2,3-dihydro-thiazol-5-yl)-pyrimidin-2-ylamino]-benzenesulfonamide]
5.82		5.59		5.85	7.45			Cc1c(-c2ccnc(Nc3cccc(S(=O)(=O)N4CCOCC4)c3)n2)sc(=O)n1C [Compound 79, 3,4-Dimethyl-5-{2-[3-(morpholine-4-sulfonyl)-phenylamino]-pyrimidin-4-yl}-3H-thiazol-2-one]
5.85		5.57	7.30	6.06	7.12		6.01	Cc1c(-c2ccnc(Nc3cccc(S(=O)(=O)NC(C)C)c3)n2)sc(=O)n1C [Compound 74, 3-[4-(3,4-Dimethyl-2-oxo-2,3-dihydro-thiazol-5-yl)-pyrimidin-2-ylamino]-N-isopropyl-benzenesulfonamide]
				6.30	8.49			Cc1cc(Nc2nccc(-c3sc(=O)n(C)c3C)n2)cnc1Cl [Compound 81, 5-[2-(6-Chloro-5-methyl-pyridin-3-ylamino)-pyrimidin-4-yl]-3,4-dimethyl-3H-thiazol-2-one]
5.68		5.92	7.57	5.96	6.88			Cc1ccc(Nc2nccc(-c3sc(=O)n(C)c3C)n2)cc1S(=O)(=O)N1CCOCC1 [Compound 78, 3,4-Dimethyl-5-{2-[4-methyl-3-(morpholine-4-sulfonyl)-phenylamino]-pyrimidin-4-yl}-3H-thiazol-2-one]
				6.42	7.16			Cc1c(-c2ccnc(Nc3ccc(CN)cc3)n2)sc(=O)n1C [Compound 80, 5-[2-(4-Aminomethyl-phenylamino)-pyrimidin-4-yl]-3,4-dimethyl-3H-thiazol-2-one]
	6.55	7.14		6.96	8.28	6.85	6.77	Cc1c(-c2ccnc(Nc3cc(N)cc(C(F)(F)F)c3)n2)sc(=O)n1C [Compound 71, 5-[2-(3-Amino-5-trifluoromethyl-phenylamino)-pyrimidin-4-yl]-3,4-dimethyl-3H-thiazol-2-one]

The remaining lines, values behind:

SMILES	pKi (CDK2/cyclin E)	pKi (CDK2/cyclin A)	pKi (CDK7/cyclin H)	pKi (CDK9/cyclin T1)	pKi (aurora A)	pIC50 (GSK3β)	pKi (CDK1/cyclin B)	pKi (CDK4/cyclin D1)
CCn1c(C)c(-c2ccnc(Nc3ccc(Cl)cc3)n2)sc1=O [Compound 46, 5-[2-(4-Chloro-phenylamino)-pyrimidin-4-yl]-3-ethyl-4-methyl-3H-thiazol-2-one]	6.24	6.40	6.10	7.24	5.96	7.00		
Cc1c(-c2ccnc(Nc3cccc([N+](=O)[O-])c3)n2)sc(=O)n1C [Compound 1, 3,4-Dimethyl-5-[2-(3-nitro-phenylamino)-pyrimidin-4-yl]-3H-thiazol-2-one]	8.00	6.77	8.55	9.52	6.15		6.00	6.52
CCn1c(C)c(-c2ccnc(Nc3ccc([N+](=O)[O-])cc3)n2)sc1=O [Compound 52, 3-Ethyl-4-methyl-5-[2-(4-nitro-phenylamino)-pyrimidin-4-yl]-3H-thiazol-2-one]	7.11	6.80	7.15	7.80	7.60		6.14	5.92
CCn1c(C)c(-c2ccnc(Nc3ccc(N4CCOCC4)cc3)n2)sc1=O [Compound 27, 3-Ethyl-4-methyl-5-[2-(4-morpholin-4-yl-phenylamino)-pyrimidin-4-yl]-3H-thiazol-2-one]	6.30	5.70	5.80	6.16	7.48			5.48
COc1ccc(C)c(Nc2nccc(-c3sc(=O)n(C)c3C)n2)c1 [Compound 56, 5-[2-(5-Methoxy-2-methyl-phenylamino)-pyrimidin-4-yl]-3,4-dimethyl-3H-thiazol-2-one]			5.54	6.34	5.59	5.46		
Cc1c(-c2ccnc(Nc3ccc(N(C)C)c([N+](=O)[O-])c3)n2)sc(=O)n1C [Compound 22, 5-[2-(4-Dimethylamino-3-nitro-phenylamino)-pyrimidin-4-yl]-3,4-dimethyl-3H-thiazol-2-one]	7.28	9.30	8.72	8.14	6.96		7.09	5.89
COCCNS(=O)(=O)c1ccc(Nc2nccc(-c3sc(=O)n(C)c3C)n2)cc1 [Compound 65, 4-[4-(3,4-Dimethyl-2-oxo-2,3-dihydro-thiazol-5-yl)-pyrimidin-2-ylamino]-N-(2-methoxy-ethyl)-benzenesulfonamide]			6.03	7.85	6.28	8.05	8.39	
CCn1c(C)c(-c2ccnc(Nc3cccc(O)c3)n2)sc1=O [Compound 43, 3-Ethyl-5-[2-(3-hydroxy-phenylamino)-pyrimidin-4-yl]-4-methyl-3H-thiazol-2-one]	8.70		7.72			7.38		6.89
CC(=O)NCc1cccc(Nc2nccc(-c3sc(=O)n(C)c3C)n2)c1 [Compound 42, N-{3-[4-(3,4-Dimethyl-2-oxo-2,3-dihydro-thiazol-5-yl)-pyrimidin-2-ylamino]-benzyl}-acetamide]	7.47	6.66	6.42	7.72		7.41	6.24	6.11
